{"source": "patent US20240269132A1", "about": "“COMPOSITIONS AND METHODS FOR TREATING POLYCYTHEMIA” (Disc Medicine, Inc., priority 0001, published 2024)", "assay_type_in_all_cases": "in vivo, C57BL/6J mice", "key": {"[1]": {"system": "EPO-induced secondary erythrocytosis model", "assay": "EPO-induced secondary erythrocytosis murine model: spleen index and CBC panel", "conditions": "30 mg/kg orally once daily", "text": "(§1) The EPO-induced secondary erythrocytosis model was used to evaluate the in vivo pharmacodynamic effect of GlyT1 inhibitor in preventing, treating, or reducing the progression rate and/or severity of polycythemia vera. Erythropoietin (EPO) stimulates the production of red blood cells and results in increased hematocrit in mice after daily dosing for 7 days at 50 IU. Therefore, the EPO model mimics the hematological parameters of polycythemia vera where JAK2 mutation drives the erythrocytosis. Briefly, 30 mg/kg of GlyT1 inhibitor bitopertin or vehicle control was administrated orally into wildtype C57BL/6J mice (10 mice per group) once daily from day 1 to day 15. 50 IU EPO was administrated daily by intraperitoneal route from day 8 to day 14 to induce erythrocytosis resembling the pathological process of polycythemia vera (FIG. 1A). Blood samples were collected from submaxillary on day 8 before the first EPO administration and on day 15, 6 hours after the last dose of GlyT1 inhibitor for CBC panel analysis using Sysmex XN-1000™ hematology analyzer. Bioanalysis of drug concentration was performed in plasma collected 6 hours after the last dose. All mice were weighed and humanely euthanized. The spleen was weighed and the spleen index was calculated via dividing the weight of spleen by the whole-body weight."}, "[2]": {"assay": "Body weight in the EPO-induced erythrocytosis study", "conditions": "30 mg/kg orally once daily, 14-day treatment, EPO model (FIG. 1B)", "text": "as §1"}, "[3]": {"assay": "Plasma drug concentration in the EPO-induced erythrocytosis study", "conditions": "C57BL/6J, mouse, po, 6 hours after the last dose, 30 mg/kg orally once daily day 1 to 15, mice (FIG. 1C)", "text": "as §1"}, "[4]": {"assay": "Body weight in the DPO-induced erythrocytosis study", "conditions": "30 or 60 mg/kg orally once daily, 8-day treatment, DPO model (FIG. 2B)", "protocol": "(§2) Briefly, C57BL/6J mice were administrated with DPO subcutaneously at 10 μg/kg/week for 2 weeks to induce erythrocytosis resembling the pathological process of polycythemia vera (FIG. 2A). 30 mg/kg or 60 mg/kg of GlyT1 inhibitor bitopertin or vehicle control was administrated orally into wild type C57BL/6J mice (10 mice per group for the vehicle and 30 mg/kg groups; 15 mice for the 60 mg/kg group) once daily from day 7 to day 15. The 60 mg/kg group was dosed at 20 mg/kg on day 7, 40 mg/kg on day 8-9, 50 mg/kg on day 10-11, 60 mg/kg on day 12-15. Blood samples were collected from submaxillary on day 0 before the first DPO administration, on day 7 before the first dose of GlyT1 inhibitor, and on day 15, 6 hours after the dosing of GlyT1 inhibitor for CBC panel analysis using Sysmex XN-1000™ hematology analyzer."}, "[5]": {"system": "DPO-induced secondary erythrocytosis model", "assay": "DPO-induced secondary erythrocytosis murine model: CBC panel", "protocol": "Darbepoietin-alpha (DPO) is a long-lasting analogue of EPO. To investigate the in vivo pharmacodynamic effect of GlyT1 inhibitor in preventing, treating, or reducing the progression rate and/or severity of polycythemia vera for longer periods, DPO was used to stimulate the production of red blood cells and mimicking the hematological features of polycythemia vera where JAK2 mutation drives the erythrocytosis.\nas §2"}}}
{"compound": "C[C@H](Oc1ccc(S(C)(=O)=O)cc1C(=O)N1CCN(c2ncc(C(F)(F)F)cc2F)CC1)C(F)(F)F", "note": "[bitopertin]", "values": [{"measurement": "hematocrit (HCT %)", "setting": "[1]; EPO model, day 15 (FIG. 1E)", "value": "reduced"}, {"measurement": "RBC count", "setting": "[1]; EPO model, day 15 (FIG. 1F)", "value": "reduced"}, {"measurement": "Hemoglobin levels", "setting": "[1]; EPO model, day 15 (FIG. 1G)", "value": "reduced"}, {"measurement": "spleen index (spleen weight / whole-body weight)", "setting": "[1]; EPO 50 IU i.p. day 8-14, EPO + vehicle 1.56%, normal mice 0.39% (FIG. 1D)", "value": 1.26, "unit": "%"}, {"measurement": "body-weight changes", "setting": "[2]", "value": "No major body-weight changes"}, {"measurement": "concentration at 6 h", "setting": "[3]", "value": "639 ± 38", "unit": "ng/mL"}, {"measurement": "body-weight changes", "setting": "[4]", "value": "No major body-weight changes"}, {"measurement": "reticulocyte hemoglobin (RET-He)", "setting": "[5]; 30 or 60 mg/kg orally once daily day 7-15, DPO model (FIG. 2F)", "value": "significant reduction"}, {"measurement": "mean corpuscular hemoglobin (MCH)", "setting": "[5]; 30 or 60 mg/kg orally once daily day 7-15, DPO model (FIG. 2G)", "value": "significant reduction"}, {"measurement": "mean corpuscular volume (MCV)", "setting": "[5]; 30 or 60 mg/kg orally once daily day 7-15, DPO model (FIG. 2H)", "value": "slightly reduced"}, {"measurement": "hematocrit (HCT %)", "setting": "[5]; 30 or 60 mg/kg orally once daily day 7-15, DPO model, in a dose dependent manner (FIG. 2C)", "value": "reduced"}, {"measurement": "RBC count", "setting": "[5]; 30 or 60 mg/kg orally once daily day 7-15, DPO model, in a dose dependent manner (FIG. 2D)", "value": "reduced"}, {"measurement": "Hemoglobin levels (HGB)", "setting": "[5]; 30 or 60 mg/kg orally once daily day 7-15, DPO model, in a dose dependent manner (FIG. 2E)", "value": "reduced"}]}
